Tests used:
[1] = target: GSK-3α (Homo sapiens, UniProt P49840); assay: GSK-3 kinase assay (C1), GSK-3α; assay type: biochemical; details: 1 μM ATP, read-out: C1 Score α
Protocol: (§1) In vitro GSK-3 assays were performed at room temperature in a 100 μl reaction volume of 25 mM Tris (pH 7.4) containing 10 mM MgCl2.6H2O, 1 mM DTT, 0.1 mg/ml BSA, 5% glycerol, 5.7 ng/μl GSK-3β or 0.25 ng/μl GSK-3α, 5 μM biotinylated CREB peptide, 1 μM ATP, 0.85 μCi/ml ^33P-ATP and a suitable amount of a test compound. After one hour, the reaction was terminated by adding 70 μl of Stop mix (0.1 mM ATP, 5 mg/ml streptavidin coated PVT SPA beads, pH 11.0). The beads were allowed to settle overnight and the radioactivity attached to the beads was counted in a microtiter plate scintillation counter and compared with the results obtained in a control experiment (without the presence of a test compound) in order to determine the percentage of GSK-3 inhibition. The IC50 value, i.e. the concentration (M) of the test compound at which 50% of GSK-3 is inhibited, was calculated from the dose response curve obtained by performing the above-described GSK-3 assay in the presence of different amounts of the test compound. Score 1=pIC50 value<6, Score 2=pIC50 value from 6-7, Score 3=pIC50 value from 7-8, Score 4=pIC50 value>8.

[2] = test system: Chang cells; assay: GSK-3 cellular assay (C2): 14C-D-glucose incorporation into glycogen; assay type: cell-based; details: increase in D-glucose incorporation into glycogen, test concentration of 10^−6 M
Protocol: Test compounds were tested for their ability to increase the incorporation of ^14C-D-glucose into glycogen in living cells. To do this, Chang cells (360,000 cells/well) were cultured in 0.5 ml of MEM Rega 3 medium supplemented with 10% fetal calf serum, 1% L-glutamine and 2% sodium carbonate. After 3 days, cells were washed with 0.5 ml of phosphate-buffered saline and overlayed with 1 ml of serum- and glucose-free DMEM medium. Then, 2 μl of compound in DMSO and 50 μl substrate (3 mM glucose and 0.5 μCi ^14C-D-glucose were added and the cultures were incubated for 90 min. Cells were then extracted with 0.5 ml of 20% KOH for 60 min at 37° C. and the cell lysates were transferred to 10 ml tubes containing 300 μl of 1 mg/ml glycogen as […]. Following the addition of 2 ml ethanol, total glycogen was precipitated overnight at −20° C. and the precipitates were recovered by centrifugation. Precipitates were then resuspended in 1 ml of water and transferred to scintillation counter vials. and the amount of ^14C-D-glucose incorporation into glycogen was measured by scintillation counting. Scores for the compounds according to the invention, were obtained at a test concentration of 10^−6 M. Score 1=10-30% increase, Score 2=30-60% increase, Score 3=60-80% increase and Score 4=>80% increase in D-glucose incorporation.

[3] = target: CDK2/cyclinA (h) (Homo sapiens, UniProt P24941); assay: Kinase profiling C3.3 CDK2/cyclinA human; assay type: biochemical; details: test concentration of 10^−6 M
Protocol: (§2) The in vitro inhibition of a panel of kinases was assessed using either the glass-fiber filter technology as described by Davies, S. P. et al., Biochem J. (2000), 351; p. 95-105. In the glass-fiber filter technology the activity of the kinase of interest is measured using an appropriate substrate that is incubated with the aforementioned kinase protein in the presence of (^33P) radiolabeled ATP. (^33P) Phosporylation of the substrate is subsequently measured as radioactivity bound on a glassfiber-filter.
(§3) All kinases are pre-diluted to a 10× working concentration prior to addition into the assay. The composition of the dilution buffer for each kinase is detailed below.
(§4) All substrates are dissolved and diluted to working stocks in de-ionised water, apart from histone H1 that is stored in 10× working stock in 20 mM MOPS pH 7.4.
(§5) In a final reaction volume of 25 μl, CDK2/cyclinA (h) (5-10 mU) is incubated with 8 mM MOPS pH 7.0, 0.2 mM EDTA, 0.1 mg/ml histone H1, 10 mM MgAcetate and [γ-^33P-ATP] (specific activity approx. 500 cpm/pmol, concentration as required). The reaction is initiated by the addition of the MgATP mix. After incubation for 40 minutes at room temperature, the reaction is stopped by the addition of 5 μl of a 3% phosphoric acid solution. 10 μl of the reaction is then spotted onto a P30 filtermat and washed three times for 5 minutes in 75 mM phosphoric acid and once in methanol prior to drying and scintillation counting.

[4] = target: GSK-3β (Homo sapiens, UniProt P49841); assay: GSK-3 kinase assay (C1), GSK-3β; assay type: biochemical; details: 1 μM ATP, read-out: C1 Score β
Protocol: as §1

[5] = target: CDK1/cyclinB (h) (Homo sapiens, UniProt P06493); assay: Kinase profiling C3.2 CDK1/cyclinB human; assay type: biochemical; details: test concentration of 10^−6 M
Protocol: as §2, §3, §4
as §5, with “CDK1/cyclinB” for “CDK2/cyclinA”

[6] = target: CDK2/cyclinE (h) (Homo sapiens, UniProt P24941); assay: Kinase profiling C3.4 CDK2/cyclinE human; assay type: biochemical; details: test concentration of 10^−6 M
Protocol: as §2, §3, §4
as §5, with “CDK2/cyclinE” for “CDK2/cyclinA”

[7] = target: CDK3/cyclinE (h) (Homo sapiens, UniProt Q00526); assay: Kinase profiling C3.5 CDK3/cyclinE human; assay type: biochemical; details: test concentration of 10^−6 M
Protocol: as §2, §3, §4
as §5, with “CDK3/cyclinE” for “CDK2/cyclinA”

[8] = target: CDK5/p35 human (Homo sapiens, UniProt Q00535); assay: Kinase profiling C3.6 CDK5/p35 human; assay type: biochemical; details: CDK5/p35, test concentration of 10^−6 M
Protocol: as §2, §3, §4
as §5, with “CDK5/p35 human” for “CDK2/cyclinA (h)”

[9] = target: CDK6/cyclinD3 human (Homo sapiens, UniProt Q00534); assay: Kinase profiling C3.7 CDK6/cyclinD3 human; assay type: biochemical; details: CDK6/cyclinD3, test concentration of 10^−6 M
Protocol: as §2, §3, §4
as §5, with “CDK6/cyclinD3 human” for “CDK2/cyclinA (h)”

[10] = target: CDK7/cyclinH/MAT1 (h) (Homo sapiens, UniProt P50613); assay: Kinase profiling C3.8 CDK7/cyclinH/MAT1 human; assay type: biochemical; details: CDK7/cyclinH/MAT1, test concentration of 10^−6 M
Protocol: as §2, §3, §4
as §5, with “CDK7/cyclinH/MAT1” for “CDK2/cyclinA”, “500 μM peptide,” for “0.1 mg/ml histone H1,”

Sequence of CDK5/p35 human (Q00535 whole entry): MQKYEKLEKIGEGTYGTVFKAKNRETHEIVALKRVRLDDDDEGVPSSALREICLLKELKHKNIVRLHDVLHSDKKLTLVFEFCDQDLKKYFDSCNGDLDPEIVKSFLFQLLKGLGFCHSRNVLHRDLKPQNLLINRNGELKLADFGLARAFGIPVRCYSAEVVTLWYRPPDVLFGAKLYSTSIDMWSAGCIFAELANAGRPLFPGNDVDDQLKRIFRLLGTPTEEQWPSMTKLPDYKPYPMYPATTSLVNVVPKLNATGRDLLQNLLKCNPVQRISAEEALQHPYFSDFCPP
Sequence of CDK5/p35 human (Q15078 whole entry partner): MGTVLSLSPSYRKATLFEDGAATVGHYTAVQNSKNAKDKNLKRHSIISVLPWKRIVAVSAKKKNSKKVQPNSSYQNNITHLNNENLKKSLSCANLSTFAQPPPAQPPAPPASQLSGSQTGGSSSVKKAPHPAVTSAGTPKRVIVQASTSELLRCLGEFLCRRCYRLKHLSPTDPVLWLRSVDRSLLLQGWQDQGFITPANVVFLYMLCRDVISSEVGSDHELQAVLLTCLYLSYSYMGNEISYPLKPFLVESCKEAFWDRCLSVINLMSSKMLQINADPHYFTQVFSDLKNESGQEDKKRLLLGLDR
Sequence of CDK7/cyclinH/MAT1 (h) (P50613 whole entry): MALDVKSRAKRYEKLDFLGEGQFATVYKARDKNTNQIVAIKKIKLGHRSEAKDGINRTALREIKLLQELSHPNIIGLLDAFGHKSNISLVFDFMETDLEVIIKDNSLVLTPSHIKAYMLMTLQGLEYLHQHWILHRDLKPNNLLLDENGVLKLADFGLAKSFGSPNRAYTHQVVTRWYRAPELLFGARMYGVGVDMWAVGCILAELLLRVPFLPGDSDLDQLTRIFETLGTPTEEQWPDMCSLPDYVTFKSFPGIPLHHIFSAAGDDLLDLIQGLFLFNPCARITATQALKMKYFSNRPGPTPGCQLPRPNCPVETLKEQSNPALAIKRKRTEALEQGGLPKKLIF
Sequence of CDK7/cyclinH/MAT1 (h) (P51946 whole entry partner): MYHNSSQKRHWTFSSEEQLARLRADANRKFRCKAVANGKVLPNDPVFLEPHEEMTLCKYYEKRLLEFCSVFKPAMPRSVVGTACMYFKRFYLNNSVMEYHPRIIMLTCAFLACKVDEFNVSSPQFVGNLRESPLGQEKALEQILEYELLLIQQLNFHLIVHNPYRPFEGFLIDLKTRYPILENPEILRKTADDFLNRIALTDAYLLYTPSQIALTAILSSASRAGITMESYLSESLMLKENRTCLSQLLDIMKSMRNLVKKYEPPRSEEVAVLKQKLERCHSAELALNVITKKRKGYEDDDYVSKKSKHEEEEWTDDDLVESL
Sequence of CDK7/cyclinH/MAT1 (h) (P51948 whole entry partner): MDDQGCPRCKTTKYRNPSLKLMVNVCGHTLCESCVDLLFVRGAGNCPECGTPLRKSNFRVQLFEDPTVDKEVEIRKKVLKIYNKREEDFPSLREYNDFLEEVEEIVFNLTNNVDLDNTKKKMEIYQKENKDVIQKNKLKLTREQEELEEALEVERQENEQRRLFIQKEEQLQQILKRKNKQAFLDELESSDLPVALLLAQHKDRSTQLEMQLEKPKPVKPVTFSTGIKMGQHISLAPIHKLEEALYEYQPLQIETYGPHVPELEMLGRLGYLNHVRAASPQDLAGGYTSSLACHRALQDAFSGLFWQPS
Sequence of GSK-3α (P49840 whole entry, species assumed): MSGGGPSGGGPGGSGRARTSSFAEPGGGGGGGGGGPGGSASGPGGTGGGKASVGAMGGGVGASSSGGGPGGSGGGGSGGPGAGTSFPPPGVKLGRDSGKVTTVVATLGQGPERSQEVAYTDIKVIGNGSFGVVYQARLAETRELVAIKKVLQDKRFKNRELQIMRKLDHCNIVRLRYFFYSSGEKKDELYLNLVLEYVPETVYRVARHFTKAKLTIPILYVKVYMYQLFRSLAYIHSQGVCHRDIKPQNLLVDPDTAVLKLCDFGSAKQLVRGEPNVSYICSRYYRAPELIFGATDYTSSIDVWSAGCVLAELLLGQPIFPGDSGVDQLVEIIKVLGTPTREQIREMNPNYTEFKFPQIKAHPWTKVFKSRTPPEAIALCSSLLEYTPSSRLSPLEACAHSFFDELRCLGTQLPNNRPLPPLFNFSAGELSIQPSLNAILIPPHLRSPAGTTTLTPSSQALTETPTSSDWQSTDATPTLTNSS
Sequence of CDK1/cyclinB (h) (P06493 whole entry): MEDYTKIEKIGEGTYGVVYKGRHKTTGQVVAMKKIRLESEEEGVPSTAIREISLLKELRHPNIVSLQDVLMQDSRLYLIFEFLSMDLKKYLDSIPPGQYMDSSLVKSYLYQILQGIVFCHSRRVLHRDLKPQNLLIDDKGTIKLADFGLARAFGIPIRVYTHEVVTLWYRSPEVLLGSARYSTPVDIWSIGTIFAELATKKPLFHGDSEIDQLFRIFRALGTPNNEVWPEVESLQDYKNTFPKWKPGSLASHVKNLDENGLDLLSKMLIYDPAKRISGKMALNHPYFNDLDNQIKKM
Sequence of CDK1/cyclinB (h) (P14635 whole entry partner): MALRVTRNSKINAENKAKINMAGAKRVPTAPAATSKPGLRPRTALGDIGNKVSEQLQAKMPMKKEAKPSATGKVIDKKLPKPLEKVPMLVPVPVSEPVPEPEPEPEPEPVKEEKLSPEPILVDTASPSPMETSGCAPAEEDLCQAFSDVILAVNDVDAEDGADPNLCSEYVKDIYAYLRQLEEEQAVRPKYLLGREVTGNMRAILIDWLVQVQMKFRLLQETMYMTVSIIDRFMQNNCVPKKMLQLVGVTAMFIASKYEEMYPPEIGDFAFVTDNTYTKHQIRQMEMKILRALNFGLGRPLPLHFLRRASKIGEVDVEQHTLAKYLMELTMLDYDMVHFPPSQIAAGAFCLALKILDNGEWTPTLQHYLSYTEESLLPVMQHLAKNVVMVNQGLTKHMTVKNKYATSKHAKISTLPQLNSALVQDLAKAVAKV
Sequence of CDK6/cyclinD3 human (Q00534 whole entry): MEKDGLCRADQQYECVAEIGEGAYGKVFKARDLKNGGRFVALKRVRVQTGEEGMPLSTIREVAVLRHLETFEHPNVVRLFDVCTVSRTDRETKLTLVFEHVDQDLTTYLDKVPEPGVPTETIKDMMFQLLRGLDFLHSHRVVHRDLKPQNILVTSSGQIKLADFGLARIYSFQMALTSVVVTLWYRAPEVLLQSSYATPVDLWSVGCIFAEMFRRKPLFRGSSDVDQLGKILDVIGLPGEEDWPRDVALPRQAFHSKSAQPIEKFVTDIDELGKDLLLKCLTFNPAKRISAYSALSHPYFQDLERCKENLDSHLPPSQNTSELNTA
Sequence of CDK6/cyclinD3 human (P30281 whole entry partner): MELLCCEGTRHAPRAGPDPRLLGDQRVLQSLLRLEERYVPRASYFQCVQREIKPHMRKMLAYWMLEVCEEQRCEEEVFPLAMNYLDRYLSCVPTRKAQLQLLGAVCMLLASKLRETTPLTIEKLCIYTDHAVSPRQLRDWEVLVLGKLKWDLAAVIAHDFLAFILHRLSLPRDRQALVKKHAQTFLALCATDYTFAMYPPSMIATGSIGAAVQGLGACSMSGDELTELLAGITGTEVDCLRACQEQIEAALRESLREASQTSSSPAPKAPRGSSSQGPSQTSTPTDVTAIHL
Sequence of GSK-3β (P49841 whole entry, species assumed): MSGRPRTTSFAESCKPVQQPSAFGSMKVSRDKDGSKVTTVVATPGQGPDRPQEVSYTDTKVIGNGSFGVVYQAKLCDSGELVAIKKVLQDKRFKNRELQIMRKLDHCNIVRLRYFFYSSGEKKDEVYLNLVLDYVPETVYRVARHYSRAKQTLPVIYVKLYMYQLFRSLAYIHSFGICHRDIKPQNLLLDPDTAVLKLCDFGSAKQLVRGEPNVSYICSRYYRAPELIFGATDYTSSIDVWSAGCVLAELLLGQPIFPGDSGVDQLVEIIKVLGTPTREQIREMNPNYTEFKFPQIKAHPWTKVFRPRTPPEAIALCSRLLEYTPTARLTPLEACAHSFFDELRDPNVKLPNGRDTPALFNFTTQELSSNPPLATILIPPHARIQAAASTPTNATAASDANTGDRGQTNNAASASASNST

| SMILES | IC50 [1] | C3.3 score [3] | IC50 [4] | C3.2 score [5] | C3.4 score [6] | C3.5 score [7] | C3.6 score [8] | C3.7 score [9] | C3.8 score [10] | C2 Score [2] |
| --- | --- | --- | --- | --- | --- | --- | --- | --- | --- | --- |
| CC(C)N1CC(=O)NCCCc2cc(ccn2)-c2ncnc(n2)Nc2cccc(c2)C1 [Compound 65] | < 10 nM | 2 (Score 2 = 30-60% inhibition) |  |  |  |  |  |  |  | 3 (Score 3=60-80% increase) |
| CN1CC(=O)N(C)CCCc2cc(ccn2)-c2ncnc(n2)Nc2cccc(c2)C1 [Compound 67] | < 10 nM |  |  |  |  |  |  |  |  | 4 (Score 4=>80% increase in D-glucose incorporation) |
| CN1CCCC(=O)NCCc2cccc(c2)Nc2ncnc(n2)-c2ccnc(c2)CCC1 [Compound 24] | 100 to 1000 nM | 3 (Score 3 = 60-80% inhibition) | 10 to 100 nM | 2 (Score 2 = 30-60% inhibition) | 3 (Score 3 = 60-80% inhibition) | 2 (Score 2 = 30-60% inhibition) | 2 (Score 2 = 30-60% inhibition) | 1 (Score 1 = 10-30% inhibition) | 3 (Score 3 = 60-80% inhibition) |  |
| CN1CCC(=O)NCCCc2cc(ccn2)-c2ncnc(n2)Nc2cc(Cl)cc(c2)C1 [Compound 32] | 10 to 100 nM | 4 (Score 4 = >80% inhibition) | 10 to 100 nM | 4 (Score 4 = >80% inhibition) | 4 (Score 4 = >80% inhibition) | 3 (Score 3 = 60-80% inhibition) | 4 (Score 4 = >80% inhibition) | 1 (Score 1 = 10-30% inhibition) | 2 (Score 2 = 30-60% inhibition) |  |
| CN1CCCc2cc(ccc2F)-c2ncnc(n2)Nc2cccc(c2)CNC(=O)C1 [Compound 70] | < 10 nM |  |  |  |  |  |  |  |  | 4 (Score 4=>80% increase in D-glucose incorporation) |
| O=C1CC2CCN(CCCc3cc(ccn3)-c3ncnc(n3)Nc3cccc(c3)CCN1)CC2 [Compound 27] | 100 to 1000 nM | 3 (Score 3 = 60-80% inhibition) | 100 to 1000 nM | 2 (Score 2 = 30-60% inhibition) | 2 (Score 2 = 30-60% inhibition) | 1 (Score 1 = 10-30% inhibition) | 2 (Score 2 = 30-60% inhibition) | 1 (Score 1 = 10-30% inhibition) | 1 (Score 1 = 10-30% inhibition) |  |

Continued, in another order:

| IC50 [1] | C3.3 score [3] | IC50 [4] | C3.2 score [5] | C3.4 score [6] | C3.5 score [7] | C3.6 score [8] | C3.7 score [9] | C3.8 score [10] | SMILES | C2 Score [2] |
| --- | --- | --- | --- | --- | --- | --- | --- | --- | --- | --- |
| 100 to 1000 nM | 4 (Score 4 = >80% inhibition) | 100 to 1000 nM | 4 (Score 4 = >80% inhibition) | 4 (Score 4 = >80% inhibition) | 4 (Score 4 = >80% inhibition) | 2 (Score 2 = 30-60% inhibition) | 1 (Score 1 = 10-30% inhibition) | 1 (Score 1 = 10-30% inhibition) | O=C1CCN2CCN(CC2)Cc2cccc(c2)Nc2ncnc(n2)-c2ccnc(c2)NCCCN1 [Compound 22] |  |
| 10 to 100 nM | 4 (Score 4 = >80% inhibition) | 10 to 100 nM | 4 (Score 4 = >80% inhibition) | 4 (Score 4 = >80% inhibition) | 4 (Score 4 = >80% inhibition) | 4 (Score 4 = >80% inhibition) | 2 (Score 2 = 30-60% inhibition) | 3 (Score 3 = 60-80% inhibition) | CN1CCC(=O)NCCNc2cc(ccn2)-c2ncnc(n2)Nc2cccc(c2)C1 [Compound 17] |  |
| 10 to 100 nM | 4 (Score 4 = >80% inhibition) | 10 to 100 nM | 4 (Score 4 = >80% inhibition) | 4 (Score 4 = >80% inhibition) | 4 (Score 4 = >80% inhibition) | 4 (Score 4 = >80% inhibition) | 2 (Score 2 = 30-60% inhibition) | 3 (Score 3 = 60-80% inhibition) | O=C1CCN2CCN(CC2)Cc2cc(Cl)cc(c2)Nc2ncnc(n2)-c2ccnc(c2)CCCN1 [Compound 37] |  |

Source: patent US8778919B2, “Cyclic anilino—pyridinotriazines” (Janssen Pharmaceutica NV, priority 2005, dated 2014)
